Reference: article PMC8745314, “Novel Tetrazole-Based Antimicrobial Agents Targeting Clinical Bacteria Strains: Exploring the Inhibition of Staphylococcus aureus DNA Topoisomerase IV and Gyrase” (International Journal of Molecular Sciences, 2021)
≈ marks a conversion by molar mass, not a printed value. Where two headings read alike, the source gives them in different places.

Experiments:
Assay type in all cases: cell-based
S. aureus ATCC 29213 = assay: MIC broth microdilution, standard strain; conditions: Staphylococcus aureus, ATCC29213; S. aureus ATCC 29213, standard strain, 19 h at 35 °C; read-out: minimal inhibitory concentration (MIC)
Protocol: (§1) All synthesized compounds were tested in vitro against a set of bacteria, including representative standard Gram-positive and Gram-negative rods. Compounds were screened for their minimal inhibitory concentrations (MICs). […] The antimicrobial assays were conducted using reference strains of bacteria derived from international microbe collections: American Type Culture Collection (ATCC) and National Collection of Type Culture (NCTC). The following standard strains of bacteria were used: Gram-positive-Staphylococcus aureus NCTC 4163, Staphylococcus aureus ATCC 25923, Staphylococcus aureus ATCC 6538, Staphylococcus aureus ATCC 29213, Staphylococcus epidermidis ATCC 12228, Staphylococcus epidermidis ATCC 35984, Gram-negative: Escherichia coli ATCC 25922, Pseudomonas aeruginosa ATCC 15442. Clinical strains of bacteria used in this study: Gram-positive: Staphylococcus epidermidis 5253, Staphylococcus epidermidis 4243, Staphylococcus aureus […], Staphylococcus aureus […] and Gram-negative: Escherichia coli 520, Escherichia coli 600, Klebsiella pneumoniae 510 and Pseudomonas aeruginosa 659 were obtained from the collection of the Department of Pharmaceutical Microbiology, Medical University of Warsaw, Poland and they were isolated from different biological materials taken from the patients hospitalized in the Warsaw Medical University hospitals. […] MIC was determined by the two-fold serial broth microdilution method in 96-well microtitration plates using Mueller-Hinton II broth medium (Becton Dickinson, Franklin Lakes, NJ, USA). The final inoculum of all studied bacteria was 10^6 CFU/mL (colony forming unit per milliliter). The stock solution of tested compounds was prepared in dimethyl sulfoxide (DMSO) and diluted to a maximum of 1% of solvent content with a sterile medium.

S. aureus ATCC 6538 = assay: MIC broth microdilution, standard strain; conditions: Staphylococcus aureus, ATCC6538; S. aureus ATCC 6538, standard strain, 19 h at 35 °C; read-out: minimal inhibitory concentration (MIC)
Protocol: as §1

[1] = tested on: S. epidermidis ATCC 12228; assay: MIC broth microdilution, standard strain; conditions: Staphylococcus epidermidis, ATCC12228; S. epidermidis ATCC 12228, standard strain, 19 h at 35 °C; read-out: minimal inhibitory concentration (MIC)
Protocol: as §1

[2] = tested on: S. epidermidis ATCC 35984; assay: MIC broth microdilution, standard strain; conditions: Staphylococcus epidermidis, ATCC35984; S. epidermidis ATCC 35984, standard strain, 19 h at 35 °C; read-out: minimal inhibitory concentration (MIC)
Protocol: as §1

[3] = tested on: standard bacteria strains; assay: MIC ranges over the panel of standard strains
Protocol: All synthesized compounds were tested in vitro against a set of bacteria, including representative standard Gram-positive and Gram-negative rods. Compounds were screened for their minimal inhibitory concentrations (MICs). […] These three compounds were also found to be good inhibitors of the growth of Gram-negative rods: […] The antimicrobial assays were conducted using reference strains of bacteria derived from international microbe collections: American Type Culture Collection (ATCC) and National Collection of Type Culture (NCTC). The following standard strains of bacteria were used: Gram-positive-Staphylococcus aureus NCTC 4163, Staphylococcus aureus ATCC 25923, Staphylococcus aureus ATCC 6538, Staphylococcus aureus ATCC 29213, Staphylococcus epidermidis ATCC 12228, Staphylococcus epidermidis ATCC 35984, Gram-negative: Escherichia coli ATCC 25922, Pseudomonas aeruginosa ATCC 15442. Clinical strains of bacteria used in this study: Gram-positive: Staphylococcus epidermidis 5253, Staphylococcus epidermidis 4243, Staphylococcus aureus […], Staphylococcus aureus […] and Gram-negative: Escherichia coli 520, Escherichia coli 600, Klebsiella pneumoniae 510 and Pseudomonas aeruginosa 659 were obtained from the collection of the Department of Pharmaceutical Microbiology, Medical University of Warsaw, Poland and they were isolated from different biological materials taken from the patients hospitalized in the Warsaw Medical University hospitals. Antimicrobial activity was examined by the minimal inhibitory concentration (MIC) method under standard procedures provided by CLSI with some modifications. MIC was determined by the two-fold serial broth microdilution method in 96-well microtitration plates using Mueller-Hinton II broth medium (Becton Dickinson, Franklin Lakes, NJ, USA). The final inoculum of all studied bacteria was 10^6 CFU/mL (colony forming unit per milliliter). The stock solution of tested compounds was prepared in dimethyl sulfoxide (DMSO) and diluted to a maximum of 1% of solvent content with a sterile medium.

[4] = tested on: clinical strains (S. aureus, S. epidermidis, E. coli, K. pneumoniae, P. aeruginosa); assay: MIC ranges over the panel of clinical strains
Protocol: In the next stage of the experiment, 8 of 11 compounds were selected for a clinical strain activity evaluation against S. aureus, S. epidermidis, E. coli, K. pneumoniae, and P. aeruginosa. […] Additionally, all three inhibited the growth of all clinical Staphylococci panels: S. aureus (T5592; T5591) and S. epidermidis (5253; 4243) with MIC values of 0.8 μg/mL.
The antimicrobial assays were conducted using reference strains of bacteria derived from international microbe collections: American Type Culture Collection (ATCC) and National Collection of Type Culture (NCTC). The following standard strains of bacteria were used: Gram-positive—Staphylococcus aureus NCTC 4163, Staphylococcus aureus ATCC 25923, Staphylococcus aureus ATCC 6538, Staphylococcus aureus ATCC 29213, Staphylococcus epidermidis ATCC 12228, Staphylococcus epidermidis ATCC 35984, Gram-negative: Escherichia coli ATCC 25922, Pseudomonas aeruginosa ATCC 15442. Clinical strains of bacteria used in this study: Gram-positive: Staphylococcus epidermidis 5253, Staphylococcus epidermidis 4243, Staphylococcus aureus T5592, Staphylococcus aureus T5591 and Gram-negative: Escherichia coli 520, Escherichia coli 600, Klebsiella pneumoniae 510 and Pseudomonas aeruginosa 659 were obtained from the collection of the Department of Pharmaceutical Microbiology, Medical University of Warsaw, Poland and they were isolated from different biological materials taken from the patients hospitalized in the Warsaw Medical University hospitals. Antimicrobial activity was examined by the minimal inhibitory concentration (MIC) method under standard procedures provided by CLSI with some modifications. MIC was determined by the two-fold serial broth microdilution method in 96-well microtitration plates using Mueller–Hinton II broth medium (Becton Dickinson, Franklin Lakes, NJ, USA). The final inoculum of all studied bacteria was 10^6 CFU/mL (colony forming unit per milliliter). The stock solution of tested compounds was prepared in dimethyl sulfoxide (DMSO) and diluted to a maximum of 1% of solvent content with a sterile medium.

[5] = Gram-negative rods: E. coli and P. aeruginosa (standard strains)
[6] = against standard Gram-positive Staphylococci
[7] = 19 h, clinical (hospital) strains, read-out: MIC values, range
[8] = all clinical Staphylococci panels: S. aureus (T5592; T5591) and S. epidermidis (5253; 4243), read-out: MIC values
[9] = 19 h, against Gram-positive clinical strains, read-out: MIC values, range

MIC (S. aureus ATCC 29213) [µg/mL]	MIC (S. aureus ATCC 6538) [µg/mL]	MIC [1] [µg/mL]	MIC [2] [µg/mL]	MIC [4, 9] [µg/mL]	Structure (SMILES)	MIC values, range [3, 5] [µg/mL]	MIC values, range [3, 6] [µg/mL]	MIC [4, 7] [µg/mL]	MIC [4, 8] [µg/mL]
8 (≈ 19.7 µM)	4 (≈ 9.84 µM)	32 (≈ 78.7 µM)	8 (≈ 19.7 µM)	2 to 32 (≈ 4.92 to 78.7 µM)	Cc1ccc(-n2nnnc2NN2C(=O)C3C(C2=O)C2(C(C)C)C=CC3(C)CC2)cc1 (stereo not shown) [Compound 10, 4-Isopropyl-7-methyl-2-((1-(p-tolyl)-1H-tetrazol-5-yl)amino)-3a,4,7,7a-tetrahydro-1H-4,7-ethanoisoindole-1,3(2H)-dione]				
8 (≈ 18.3 µM)	8 (≈ 18.3 µM)	16 (≈ 36.6 µM)	16 (≈ 36.6 µM)	2 to 32 (≈ 4.57 to 73.1 µM)	CC(C)C12C=CC(C)(CC1)C1C(=O)N(Nc3nnnn3-c3ccc([N+](=O)[O-])cc3)C(=O)C12 (stereo not shown) [Compound 8, 4-Isopropyl-7-methyl-2-((1-(4-nitrophenyl)-1H-tetrazol-5-yl)amino)-3a,4,7,7a-tetrahydro-1H-4,7-ethanoisoindole-1,3(2H)-dione]				
64 (≈ 136 µM)	64 (≈ 136 µM)	128 (≈ 272 µM)	64 (≈ 136 µM)	2 to 32 (≈ 4.24 to 67.9 µM)	CC(C)C12C=CC(C)(CC1)C1C(=O)N(Nc3nnnn3-c3ccccc3Br)C(=O)C12 (stereo not shown) [Compound 9, 2-((1-(2-Bromophenyl)-1H-tetrazol-5-yl)amino)-4-isopropyl-7-methyl-3a,4,7,7a-tetrahydro-1H-4,7-ethanoisoindole-1,3(2H)-dione]				
16 (≈ 37.8 µM)	32 (≈ 75.6 µM)	32 (≈ 75.6 µM)	32 (≈ 75.6 µM)	2 to 32 (≈ 4.72 to 75.6 µM)	CC1=C(C)C2(C)CC1(C)C1C(=O)N(Nc3nnnn3-c3ccc([N+](=O)[O-])cc3)C(=O)C12 (stereo not shown) [Compound 4, 4,5,6,7-Tetramethyl-2-((1-(4-nitrophenyl)-1H-tetrazol-5-yl)amino)-3a,4,7,7a-tetrahydro-1H-4,7-methanoisoindole-1,3(2H)-dione]				
4 (≈ 10.6 µM)	2 (≈ 5.28 µM)	16 (≈ 42.3 µM)	4 (≈ 10.6 µM)	2 to 32 (≈ 5.28 to 84.6 µM)	CC1=C(C)C2(C)CC1(C)C1C(=O)N(Nc3nnnn3-c3ccccc3)C(=O)C12 (stereo not shown) [Compound 6, 4,5,6,7-Tetramethyl-2-((1-phenyl-1H-tetrazol-5-yl)amino)-3a,4,7,7a-tetrahydro-1H-4,7-methanoisoindole-1,3(2H)-dione]				

Structure (SMILES)	MIC (S. aureus ATCC 29213) [µg/mL]	MIC (S. aureus ATCC 6538) [µg/mL]	MIC [1] [µg/mL]	MIC [2] [µg/mL]	MIC [4, 9] [µg/mL]	MIC values, range [3, 5] [µg/mL]	MIC values, range [3, 6] [µg/mL]	MIC [4, 7] [µg/mL]	MIC [4, 8] [µg/mL]
CC1=C(C)C2(C)CC1(C)C1C(=O)N(Nc3nnnn3-c3ccccc3Br)C(=O)C12 (stereo not shown) [Compound 3, 2-((1-(2-Bromophenyl)-1H-tetrazol-5-yl)amino)-4,5,6,7-tetramethyl-3a,4,7,7a-tetrahydro-1H-4,7-methanoisoindole-1,3(2H)-dione]	0.2 (≈ 0.437 µM)	0.2 (≈ 0.437 µM)	2 (≈ 4.37 µM)	0.2 (≈ 0.437 µM)		0.4 to 25.6	0.1 to 3.2	0.8 to 3.2 (≈ 1.75 to 7 µM)	0.8 (≈ 1.75 µM)
CC1=C(C)C2(C)CC1(C)C1C(=O)N(Nc3nnnn3-c3ccccc3Cl)C(=O)C12 (stereo not shown) [Compound 2, 2-((1-(2-Chlorophenyl)-1H-tetrazol-5-yl)amino)-4,5,6,7-tetramethyl-3a,4,7,7a-tetrahydro-1H-4,7-methanoisoindole-1,3(2H)-dione]	0.8 (≈ 1.94 µM)	0.4 (≈ 0.969 µM)	3.2 (≈ 7.75 µM)	0.4 (≈ 0.969 µM)		0.4 to 25.6	0.1 to 3.2	0.8 to 3.2 (≈ 1.94 to 7.75 µM)	0.8 (≈ 1.94 µM)
CC1=C(C)C2(C)CC1(C)C1C(=O)N(Nc3nnnn3-c3cccc(C(F)(F)F)c3)C(=O)C12 (stereo not shown) [Compound 1, 4,5,6,7-Tetramethyl-2-((1-(3-(trifluoromethyl)phenyl)-1H-tetrazol-5-yl)amino)-3a,4,7,7a-tetrahydro-1H-4,7-methanoisoindole-1,3(2H)-dione]	0.2 (≈ 0.448 µM)	0.2 (≈ 0.448 µM)	3.2 (≈ 7.17 µM)	0.2 (≈ 0.448 µM)		0.4 to 25.6	0.1 to 3.2	0.8 to 3.2 (≈ 1.79 to 7.17 µM)	0.8 (≈ 1.79 µM)
